This is an account of results in patent US12479856B2, “Pharmaceutical compounds for the treatment of complement mediated disorders” (Achillion Pharmaceuticals, Inc., priority 2019, dated 2025).

The target of the assay is T1, Human complement C1s enzyme (Homo sapiens, UniProt P09871).
T1 construct: purified from human serum, Complement Technology, Inc; purchased Complement Technology, Inc; host or cells: human serum (plasma-derived natural protein)
T1 sequence (P09871 438-688 limits assumed): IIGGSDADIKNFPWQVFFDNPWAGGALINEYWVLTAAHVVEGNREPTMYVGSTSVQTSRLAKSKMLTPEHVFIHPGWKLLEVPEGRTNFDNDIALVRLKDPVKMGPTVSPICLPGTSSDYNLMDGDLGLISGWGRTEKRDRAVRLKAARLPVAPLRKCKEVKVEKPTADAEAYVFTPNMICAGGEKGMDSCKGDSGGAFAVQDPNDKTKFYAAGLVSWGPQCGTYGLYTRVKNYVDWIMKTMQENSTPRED
T1 sequence (P09871 16-437 partner limits assumed): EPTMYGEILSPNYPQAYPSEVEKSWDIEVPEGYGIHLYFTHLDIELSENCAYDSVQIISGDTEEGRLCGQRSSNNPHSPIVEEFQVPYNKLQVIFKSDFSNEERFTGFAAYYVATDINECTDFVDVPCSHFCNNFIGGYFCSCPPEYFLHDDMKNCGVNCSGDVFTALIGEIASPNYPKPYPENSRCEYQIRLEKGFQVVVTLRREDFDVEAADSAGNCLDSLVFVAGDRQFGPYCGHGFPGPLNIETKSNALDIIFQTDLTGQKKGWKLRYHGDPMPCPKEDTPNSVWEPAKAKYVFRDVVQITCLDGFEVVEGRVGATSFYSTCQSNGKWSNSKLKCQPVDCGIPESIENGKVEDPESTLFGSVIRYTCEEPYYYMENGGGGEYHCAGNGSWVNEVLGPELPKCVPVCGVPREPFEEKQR
Description: Human C1s Enzyme Assay. The format is biochemical. The conditions noted are these: C1s purified from human serum, 1.16 nM, substrate Z-L-Lys-SBzl, read-out: C1s Protease Activity. The method, then: Example 4. Human C1s Enzyme Assay
Human complement C1s enzyme (purified from human serum, Complement Technology, Inc.) at 1.16 nM final concentration is incubated with test compound at various concentrations for 5 min at room temperature in 50 mM Tris, 1 M NaCl, pH 7.5. A synthetic substrate Z-L-Lys-SBzl and DTNB (Ellman's reagent) are added to final concentrations of 100 μM each. Absorbance at 405 nm (A405) is recorded at 30 second intervals for 30 min using a microplate spectrophotometer. IC50 values are calculated by nonlinear regression of complement C1s reaction rates as a function of test compound concentration.

Like-named read-outs stand apart in the source and are kept apart here.

Turning to `CC(=O)Nc1cccc(CNC(=O)[C@@H]2CC3(CN2C(=O)CNC(=O)c2ccc(Oc4ccccc4)cc2)OCCO3)c1` [Compound 20, (8S)—N-[(3-Acetamidophenyl)methyl]-7-{2-[(4-phenoxyphenyl)formamido]acetyl}-1,4-dioxa-7-azaspiro[4.4]nonane-8-carboxamide], for the setting “Table 1”, the IC50 was over 1000 nM.
In the case of `CCCc1ccc(C(=O)NCC(=O)N2CCC[C@H]2C(=O)NCc2cc(C(=N)N)cs2)cc1` [Compound 72, (S)-N-((4-carbamimidoylthiophen-2-yl)methyl)-1-((4-propylbenzoyl)glycyl)pyrrolidine-2-carboxamide], where the note is “Table 2”, the IC50 is under 100 nM.
As for `Nc1cc(CCNC(=O)[C@@H]2CC3(CN2C(=O)CNC(=O)c2ccc(Oc4ccccc4)cc2)OCCO3)ccn1` [Compound 24, (8S)—N-[2-(2-Aminopyridin-4-yl)ethyl]-7-{2-[(4-phenoxyphenyl)formamido]acetyl}-1,4-dioxa-7-azaspiro[4.4]nonane-8-carboxamide], the IC50 (Table 1) was over 1000 nM.
In the case of `N=C(N)NOCCNC(=O)[C@@H]1CC2(CN1C(=O)CNC(=O)c1ccc(Oc3ccccc3)cc1)OCCO2` [Compound 65, (S)-N-(2-(guanidinooxy)ethyl)-7-((4-phenoxybenzoyl)glycyl)-1,4-dioxa-7-azaspiro[4.4]nonane-8-carboxamide], the IC50 (Table 2) was over 1000 nM.
On the same count and under the same terms, the same measure for `CCCCCCC(=O)NCC(=O)N1CCC[C@H]1C(=O)NCc1cc(C(=N)N)cs1` [Compound 83, (S)-N-((4-carbamimidoylthiophen-2-yl)methyl)-1-(heptanoylglycyl)pyrrolidine-2-carboxamide]: 100 to 1000 nM.
Turning to `C[C@@]12C[C@@H]1N(C(=O)CNC(=O)c1ccc(Oc3ccc(S(F)(F)(F)(F)F)cc3)cc1)[C@H](C(=O)NCc1cc(C(=N)N)cs1)C2` [Compound 95, (1S,3S,5S)-N-((4-carbamimidoylthiophen-2-yl)methyl)-5-methyl-2-((4-(4-(pentafluoro-16-sulfaneyl)phenoxy)benzoyl)glycyl)-2-azabicyclo[3.1.0]hexane-3-carboxamide], the IC50 (Table 3) was under 100 nM.
With `NCCCCCCNC(=O)[C@@H]1CC2(CN1C(=O)CNC(=O)c1ccc(Oc3ccccc3)cc1)OCCO2` [Compound 27, (8S)—N-(6-Aminohexyl)-7-{2-[(4-phenoxyphenyl)formamido]acetyl}-1,4-dioxa-7-azaspiro[4.4]nonane-8-carboxamide], the IC50 (Table 1) is over 1000 nM.
For the compound `N=C(N)c1csc(CNC(=O)[C@@H]2CCCN2C(=O)CNC(=O)c2ccc(Cc3ccccc3)cc2)c1` [Compound 56, (S)-1-((4-benzylbenzoyl)glycyl)-N-((4-carbamimidoylthiophen-2-yl)methyl)pyrrolidine-2-carboxamide], the IC50 (Table 2) was under 100 nM.
On to `C[C@@]12C[C@@H](C(=O)NCc3cc(C(=N)N)cs3)N(C(=O)CNC(=O)c3ccc(Oc4ccccc4)cc3)[C@@H]1C2` [Compound 8, (1R,3S,5R)—N-[(4-Carbamimidoylthiophen-2-yl)methyl]-5-methyl-2-{2-[(4-phenoxyphenyl)formamido]acetyl}-2-azabicyclo[3.1.0]hexane-3-carboxamide], for which the IC50 (Table 1) is under 100 nM.
Consider `C[C@@]1(C(=O)NCc2cc(C(=N)N)cs2)CCCN1C(=O)CNC(=O)c1ccc(Oc2ccccc2)cc1` [Compound 3, (2S)—N-[(4-Carbamimidoylthiophen-2-yl)methyl]-2-methyl-1-{2-[(4-phenoxyphenyl)formamido]acetyl}pyrrolidine-2-carboxamide], for which the IC50 (Table 1) was under 100 nM.
The same measure, in the same setting: the same measure for `N=C(N)NCCC[C@H](NC(=O)[C@@H]1CC2(CN1C(=O)CNC(=O)c1ccc(Oc3ccccc3)cc1)OCCO2)C(N)=O` [Compound 22, N-{2-[(8S)-8-{[(1S)-4-Carbamimidamido-1-carbamoylbutyl]carbamoyl}-1,4-dioxa-7-azaspiro[4.4]nonan-7-yl]-2-oxoethyl}-4-phenoxybenzamide]: over 1000 nM.
